From US9546164B2 (GENENTECH, INC., priority 2013, dated 2017)

Target: hNav1.7 (Homo sapiens (Human), UniProt Q15858)
Test: Tritiated sulfonamide competitive binding to membranes from cells expressing hNav1.7 and the β1 subunit;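 also: Filter-bound radioactivity counted by liquid scintillation, nonspecific binding defined with excess unlabelled ligand, IC50 fitted to percent inhibition of specific binding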
Settings: read-out: Ligand Binding Assay; 100 pM [3H]compound, membranes with hNav1.7 and β1 subunit, 18 h, room temperature

hNav1.7, sequence (Q15858 other isoform, or with tags, fused parts or gaps): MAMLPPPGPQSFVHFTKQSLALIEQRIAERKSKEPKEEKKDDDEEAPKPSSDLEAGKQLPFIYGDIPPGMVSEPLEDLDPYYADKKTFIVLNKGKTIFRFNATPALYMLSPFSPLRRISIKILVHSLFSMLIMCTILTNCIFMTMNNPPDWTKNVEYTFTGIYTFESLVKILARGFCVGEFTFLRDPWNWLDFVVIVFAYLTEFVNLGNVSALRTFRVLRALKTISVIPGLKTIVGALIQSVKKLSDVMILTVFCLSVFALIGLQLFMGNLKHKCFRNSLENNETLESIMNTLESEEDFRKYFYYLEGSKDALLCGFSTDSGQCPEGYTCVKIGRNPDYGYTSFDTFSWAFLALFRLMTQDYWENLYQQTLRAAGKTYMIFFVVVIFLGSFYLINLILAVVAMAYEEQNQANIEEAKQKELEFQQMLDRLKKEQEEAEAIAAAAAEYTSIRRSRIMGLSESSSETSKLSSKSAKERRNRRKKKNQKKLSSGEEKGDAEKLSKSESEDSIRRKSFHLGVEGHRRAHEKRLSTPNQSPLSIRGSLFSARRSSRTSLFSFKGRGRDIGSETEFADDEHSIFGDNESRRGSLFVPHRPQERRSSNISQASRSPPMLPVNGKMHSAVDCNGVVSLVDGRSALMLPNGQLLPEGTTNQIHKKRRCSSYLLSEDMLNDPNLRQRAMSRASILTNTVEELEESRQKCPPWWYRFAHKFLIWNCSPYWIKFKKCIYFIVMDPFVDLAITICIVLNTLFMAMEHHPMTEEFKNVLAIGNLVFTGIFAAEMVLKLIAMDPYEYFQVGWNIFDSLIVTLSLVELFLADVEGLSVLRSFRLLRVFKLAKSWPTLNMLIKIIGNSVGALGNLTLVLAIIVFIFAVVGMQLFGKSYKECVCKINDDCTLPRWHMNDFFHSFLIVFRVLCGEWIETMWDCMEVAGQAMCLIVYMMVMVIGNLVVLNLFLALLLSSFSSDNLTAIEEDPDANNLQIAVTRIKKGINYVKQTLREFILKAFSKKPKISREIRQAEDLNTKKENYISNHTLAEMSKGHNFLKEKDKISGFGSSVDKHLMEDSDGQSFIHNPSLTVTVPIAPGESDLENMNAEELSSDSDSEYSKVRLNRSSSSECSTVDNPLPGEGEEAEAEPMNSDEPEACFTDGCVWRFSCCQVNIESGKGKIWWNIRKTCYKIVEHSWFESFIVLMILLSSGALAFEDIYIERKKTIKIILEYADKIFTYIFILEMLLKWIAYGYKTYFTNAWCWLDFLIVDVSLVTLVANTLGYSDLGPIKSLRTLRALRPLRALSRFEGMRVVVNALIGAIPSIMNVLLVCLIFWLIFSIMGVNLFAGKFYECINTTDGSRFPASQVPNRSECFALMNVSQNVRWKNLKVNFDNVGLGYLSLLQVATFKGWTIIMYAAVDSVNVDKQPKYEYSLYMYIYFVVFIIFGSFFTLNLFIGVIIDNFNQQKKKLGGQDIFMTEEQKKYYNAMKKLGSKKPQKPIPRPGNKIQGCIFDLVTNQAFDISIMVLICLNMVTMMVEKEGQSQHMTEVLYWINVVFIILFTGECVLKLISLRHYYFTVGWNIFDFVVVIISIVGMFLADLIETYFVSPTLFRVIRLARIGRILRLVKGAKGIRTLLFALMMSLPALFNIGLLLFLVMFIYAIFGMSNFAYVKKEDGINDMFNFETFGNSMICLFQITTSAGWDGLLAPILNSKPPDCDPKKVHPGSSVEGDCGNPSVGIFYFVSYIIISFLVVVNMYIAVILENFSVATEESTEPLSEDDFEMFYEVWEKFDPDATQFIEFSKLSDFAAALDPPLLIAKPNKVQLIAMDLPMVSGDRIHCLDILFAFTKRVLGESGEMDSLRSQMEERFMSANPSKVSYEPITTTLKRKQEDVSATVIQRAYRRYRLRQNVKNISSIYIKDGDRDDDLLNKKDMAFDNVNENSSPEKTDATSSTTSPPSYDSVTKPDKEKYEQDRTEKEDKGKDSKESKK
hNav1.7, sequence (Q07699 19-218 partner): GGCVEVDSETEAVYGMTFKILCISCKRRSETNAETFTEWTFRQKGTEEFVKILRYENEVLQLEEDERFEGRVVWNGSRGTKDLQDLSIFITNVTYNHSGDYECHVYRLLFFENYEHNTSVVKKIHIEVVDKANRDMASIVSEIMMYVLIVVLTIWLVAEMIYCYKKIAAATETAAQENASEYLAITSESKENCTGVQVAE

With `CS(=O)(=O)NC(=O)c1cc(C2CC2)c(OCC2CN(S(=O)(=O)c3ccccc3)C2)cc1F` [Example 129, 5-Cyclopropyl-2-fluoro-N-(methylsulfonyl)-4-((1-(phenylsulfonyl)-azetidin-3-yl)methoxy)benzamide] the IC50 was 1370 nM.

`CC1(COc2cc(F)c(C(=O)NS(C)(=O)=O)cc2C2CC2)CCN(Cc2ccc(F)cc2C(F)(F)F)CC1` [Example 130, 5-cyclopropyl-2-fluoro-4-((1-(4-fluoro-2-(trifluoromethyl)benzyl)-4-methylpiperidin-4-yl)methoxy)-N-(methylsulfonyl)benzamide] showed an IC50 of 3.5 nM.

`CS(=O)(=O)NC(=O)c1cc(C2CC2)c(OCC2CN(C(c3ccccc3)c3ccc(C(F)(F)F)cc3)C2)cc1F` (stereo not drawn) [Example 131, 5-Cyclopropyl-2-fluoro-N-(methylsulfonyl)-4-((1-(phenyl(4-(trifluoromethyl)phenyl)methyl)-azetidin-3-yl)methoxy)benzamide] was tested, and the IC50 was 2.99 nM.

`CS(=O)(=O)NC(=O)c1cc(C2CC2)c(OCC2CN(Cc3cc(Cl)cc(Cl)c3)C2)cc1F` [Example 132, 5-Cyclopropyl-4-((1-(3,5-dichlorobenzyl)azetidin-3-yl)methoxy)-2-fluoro-N-(methylsulfonyl)benzamide] was tested, and the IC50 was 14 nM.

Work on `CS(=O)(=O)NC(=O)c1cc(C2CC2)c(OCC2CN(Cc3ccc(Cl)c(F)c3)C2)cc1F` [Example 133, 4-((1-(4-Chloro-3-fluorobenzyl)azetidin-3-yl)methoxy)-5-cyclopropyl-2-fluoro-N-(methylsulfonyl)benzamide] yielded an IC50 of 118 nM.

In the case of `CS(=O)(=O)NC(=O)c1cc(C2CC2)c(OCC2CN(C(=O)c3cc(Cl)cc(Cl)c3)C2)cc1F` [Example 134, 5-Cyclopropyl-4-((1-(3,5-dichlorobenzoyl)azetidin-3-yl)methoxy)-2-fluoro-N-(methylsulfonyl)benzamide], the IC50 is reported as 346 nM.

`CS(=O)(=O)NC(=O)c1cc(C2CC2)c(OCC2CCN(Cc3ccc(OC(F)(F)F)cc3)CC2)cc1F` [Example 135] was tested, and the IC50 was 15.5 nM.

For `CS(=O)(=O)NC(=O)c1cc(C2CC2)c(OCC2CCN(Cc3cc(Cl)cc(OC(F)(F)F)c3)CC2)cc1F` [Example 136, 4-((1-(3-Chloro-5-(trifluoromethoxy)benzyl)piperidin-4-yl)methoxy)-5-cyclopropyl-2-fluoro-N-(methylsulfonyl)benzamide], the IC50 was 1.88 nM.

`CS(=O)(=O)NC(=O)c1cc(C2CC2)c(OCC2CCN(Cc3cc(Cl)cc(C(F)(F)F)c3)CC2)cc1F` [Example 137, 4-((1-(3-Chloro-5-(trifluoromethyl)benzyl)piperidin-4-yl)methoxy)-5-cyclopropyl-2-fluoro-N-(methylsulfonyl)benzamide] gave an IC50 of 2.05 nM.

In the case of `CS(=O)(=O)NC(=O)c1cc(C2CC2)c(OCC2CCN(Cc3ccc(Cl)c(F)c3)CC2)cc1F` [Example 138, 4-((1-(4-Chloro-3-fluorobenzyl)piperidin-4-yl)methoxy)-5-cyclopropyl-2-fluoro-N-(methylsulfonyl)benzamide], the IC50 is reported as 11.2 nM.

With `CS(=O)(=O)NC(=O)c1cc(C2CC2)c(OCC2CCN(Cc3cc(Cl)cc(Cl)c3)CC2)cc1F` [Example 139, 5-Cyclopropyl-4-((1-(3,5-dichlorobenzyl)piperidin-4-yl)methoxy)-2-fluoro-N-(methylsulfonyl)benzamide] the IC50 was 4.9 nM.

Work on `CC1(COc2cc(F)c(C(=O)NS(C)(=O)=O)cc2C2CC2)CCN(Cc2cc(Cl)cc(C(F)(F)F)c2)CC1` [Example 140, 4-((1-(3-chloro-5-(trifluoromethyl)benzyl)-4-methylpiperidin-4-yl)methoxy)-5-cyclopropyl-2-fluoro-N-(methylsulfonyl)benzamide] yielded an IC50 of 3.5 nM.

Work on `CC1(COc2cc(F)c(C(=O)NS(C)(=O)=O)cc2C2CC2)CCN(Cc2cc(C(F)(F)F)cc(Cl)c2F)CC1` [Example 141, 4-((1-(3-chloro-2-fluoro-5-(trifluoromethyl)benzyl)-4-methylpiperidin-4-yl)methoxy)-5-cyclopropyl-2-fluoro-N-(methylsulfonyl)benzamide] yielded an IC50 of 3.9 nM.

`CS(=O)(=O)NC(=O)c1cc(C2CC2)c(OCC2CN([C@@H](c3ccccc3)c3cc(Cl)cc(Cl)c3)C2)cc1F` [Example 142, (S)-5-Cyclopropyl-4-((1-((3,5-dichlorophenyl)(phenyl)methyl)azetidin-3-yl)methoxy)-2-fluoro-N-(methylsulfonyl)benzamide] was tested, and the IC50 was 6.57 nM.

Work on `CS(=O)(=O)NC(=O)c1cc(C2CC2)c(OCC2CN([C@H](c3ccccc3)c3cc(Cl)cc(Cl)c3)C2)cc1F` [Example 143] yielded an IC50 of 2.6 nM.

In the case of `CS(=O)(=O)NC(=O)c1cc(C2CC2)c(OCC2CN([C@@H](c3ccccc3)c3ccc(F)cc3)C2)cc1F` [Example 144, (S)-5-Cyclopropyl-2-fluoro-4-((1-((4-fluorophenyl)(phenyl)methyl)azetidin-3-yl)methoxy)-N-(methylsulfonyl)benzamide], the IC50 is reported as 9.15 nM.

`CS(=O)(=O)NC(=O)c1cc(C2CC2)c(OCC2CN([C@H](c3ccccc3)c3ccc(F)cc3)C2)cc1F` [Example 145, (R)-5-Cyclopropyl-2-fluoro-4-((1-((4-fluorophenyl)(phenyl)methyl)-azetidin-3-yl)methoxy)-N-(methylsulfonyl)benzamide] was tested, and the IC50 was 6.22 nM.

Compound `CS(=O)(=O)NC(=O)c1cc(C2CC2)c(OCC2CCN(Cc3ccc(Cl)c(Cl)c3)CC2)cc1F` [Example 147, 5-Cyclopropyl-4-((1-(3,4-dichlorobenzyl)piperidin-4-yl)methoxy)-2-fluoro-N-(methylsulfonyl)benzamide] has an IC50 of 6.03 nM.

Work on `CC(c1cccc(Cl)c1)N1CCC(COc2cc(F)c(C(=O)NS(C)(=O)=O)cc2C2CC2)CC1` (stereo not drawn) [Example 148, 4-((1-(1-(3-Chlorophenyl)ethyl)piperidin-4-yl)methoxy)-5-cyclopropyl-2-fluoro-N-(methylsulfonyl)benzamide] yielded an IC50 of 15 nM.

In the case of `CS(=O)(=O)NC(=O)c1cc(C2CC2)c(OCC2CCN(Cc3ccccc3C#N)CC2)cc1F` [Example 149, 4-((1-(2-Cyanobenzyl)piperidin-4-yl)methoxy)-5-cyclopropyl-2-fluoro-N-(methylsulfonyl)benzamide], the IC50 is reported as 73.7 nM.

For `CS(=O)(=O)NC(=O)c1cc(C2CC2)c(OCC2CN([C@@H](c3ccccc3)c3ccccc3Cl)C2)cc1F` [Example 150, (S)-4-((1-((2-Chlorophenyl)(phenyl)methyl)azetidin-3-yl)methoxy)-5-cyclopropyl-2-fluoro-N-(methylsulfonyl)benzamide], the IC50 was 100 nM.

`CS(=O)(=O)NC(=O)c1cc(C2CC2)c(OCC2CN([C@H](c3ccccc3)c3ccccc3Cl)C2)cc1F` [Example 151, (R)-4-((1-((2-Chlorophenyl)(phenyl)methyl)azetidin-3-yl)methoxy)-5-cyclopropyl-2-fluoro-N-(methylsulfonyl)benzamide] was tested, and the IC50 was 9.94 nM.

`CS(=O)(=O)NC(=O)c1cc(C2CC2)c(OCC2CN([C@@H](c3ccccc3)c3ccncc3)C2)cc1F` [Example 152, (S)-5-Cyclopropyl-2-fluoro-N-(methylsulfonyl)-4-((1-(phenyl(pyridin-4-yl)methyl)azetidin-3-yl)methoxy)benzamide] showed an IC50 of 443 nM.

`CS(=O)(=O)NC(=O)c1cc(C2CC2)c(OCC2CN([C@H](c3ccccc3)c3ccncc3)C2)cc1F` [Example 153, (R)-5-Cyclopropyl-2-fluoro-N-(methylsulfonyl)-4-((1-(phenyl(pyridin-4-yl)methyl)azetidin-3-yl)methoxy)benzamide] gave an IC50 of 439 nM.

For `CS(=O)(=O)NC(=O)c1cc(C2CC2)c(OCC2CN(C(c3ccccc3)c3cccc(F)c3)C2)cc1F` (stereo not drawn) [Example 154, 5-Cyclopropyl-2-fluoro-4-((1-((3-fluorophenyl)(phenyl)methyl)azetidin-3-yl)methoxy)-N-(methylsulfonyl)benzamide], the IC50 was 9.12 nM.

Work on `CCC(c1cc(Cl)cc(Cl)c1)N1CCC(COc2cc(F)c(C(=O)NS(C)(=O)=O)cc2C2CC2)CC1` (stereo not drawn) [Example 155, 5-Cyclopropyl-4-((1-(1-(3,5-dichlorophenyl)propyl)piperidin-4-yl)methoxy)-2-fluoro-N-(methylsulfonyl)benzamide] yielded an IC50 of 2.02 nM.

`CC(c1ccc(OC(F)(F)F)cc1)N1CCC(COc2cc(F)c(C(=O)NS(C)(=O)=O)cc2C2CC2)CC1` (stereo not drawn) [Example 156] showed an IC50 of 21 nM.

In the case of `CCC(c1cc(Cl)cc(Cl)c1)N1CC(COc2cc(F)c(C(=O)NS(C)(=O)=O)cc2C2CC2)C1` (stereo not drawn) [Example 158, 5-Cyclopropyl-4-((1-(1-(3,5-dichlorophenyl)propyl)azetidin-3-yl)methoxy)-2-fluoro-N-(methylsulfonyl)benzamide], the IC50 is reported as 12.3 nM.

`CS(=O)(=O)NC(=O)c1cc(C2CC2)c(OCC2CCN(Cc3ccccc3C(F)(F)F)CC2)cc1F` [Example 159, 5-Cyclopropyl-2-fluoro-N-(methylsulfonyl)-4-((1-(2-(trifluoromethyl)-benzyl)piperidin-4-yl)methoxy)benzamide] gave an IC50 of 5.42 nM.

Compound `CS(=O)(=O)NC(=O)c1cc(C2CC2)c(OCC2CCN(Cc3ccc(F)c(F)c3)CC2)cc1F` [Example 160, 5-Cyclopropyl-4-((1-(3,4-difluorobenzyl)piperidin-4-yl)methoxy)-2-fluoro-N-(methylsulfonyl)benzamide] has an IC50 of 62.8 nM.

In the case of `CS(=O)(=O)NC(=O)c1cc(C2CC2)c(OCC2CCN(Cc3ccc(F)cc3)CC2)cc1F` [Example 161, 5-Cyclopropyl-2-fluoro-4-((1-(4-fluorobenzyl)piperidin-4-yl)methoxy)-N-(methylsulfonyl)benzamide], the IC50 is reported as 284 nM.

`C[C@H](c1cc(F)cc(C(F)(F)F)c1)N1CCC(C)(COc2cc(F)c(C(=O)NS(C)(=O)=O)cc2C2CC2)CC1` [Example 170, (R)-5-cyclopropyl-2-fluoro-4-((1-(1-(3-fluoro-5-(trifluoromethyl)phenyl)ethyl)-4-methylpiperidin-4-yl)methoxy)-N-(methylsulfonyl)benzamide] was tested, and the IC50 was 5 nM.

With `CS(=O)(=O)NC(=O)c1cc(C2CC2)c(OCC2CCN(C3(c4cc(Cl)cc(Cl)c4)COC3)CC2)cc1F` [Example 174, 5-Cyclopropyl-4-((1-(3-(3,5-dichlorophenyl)oxetan-3-yl)piperidin-4-yl)methoxy)-2-fluoro-N-(methylsulfonyl)benzamide] the IC50 was 12 nM.
